Consider five molecules from patent publication US20100143332A1, “COMBINATION THERAPY FOR PROLIFERATIVE DISORDERS” (Schering Corporation, priority 2006, published 2010).

Assay [1] has as its system γ-H2A.X phosphorylation in U20S cells. Put plainly: γ-H2A.X phosphorylation by intracellular staining and FACS (marker of double-stranded DNA breaks). The format is cell-based, Human. How it is done:
(§1) Cell lines, drugs, and siRNA treatment materials and methods are as follow. Human U20S osteosarcoma cells are grown in DMEM (Mediatech, Herndon, Va.) supplemented with 10% FBS (JRH BioSciences, St. Louis, Mo.), 200 U/ml penicillin, 200 μg/ml streptomycin, and 300 μg/ml L-Glutamine (Cambrex). HU (Sigma, St. Louis, Mo.) is used at 1 mM for 15 hours.
(§2) Cells are transfected with 50 nM siRNA for Chk1, 100 nM siRNA for Luciferase (Luc), PolA, PolE, PolD1, and ATR duplexes using Lipofectamine 2000 (Invitrogen, Carlsbad, Calif.) according to the manufacturer's protocol.
Flow cytometric analysis, e.g. γ-H2AX detection for DNA damage and BrdU incorporation for cell cycle analysis, is performed as described previously (Cho et al. (2005) Cell Cycle 4:131) and analyzed with a BD LSR II (BD BioSciences, San Jose, Calif.) using FacsDIVA software.

Assay [2] relates to Chk1 S345 phosphorylation in U20S cells. The assay can be described thus: Western blot of Chk1 S345 phosphorylation in cell extracts. The conditions noted are these: for Chk1 S345 phosphorylation after antimetabolite treatment: 1 mM HU, 5 μM Gem or 5 μM Ara-C for 2 h, FIG. 1. The format is cell-based, Human. How it is done: as §1, §2
(§3) Western blot analysis of siRNA knockdowns is performed as follows. Cell pellets are trypsinized, washed with PBS, and lysed in 2×SDS sample buffer (Invitrogen, Carlsbad, Calif.). Protein extracts are separated by SDS-polyacrylamide gel electrophoresis and transfer to Immobilon®-P membrane (Millipore, Billarica, Mass.). Antibodies used in this study are obtained from Santa Cruz Biotechnology, Inc. (Santa Cruz, Calif.) (Polα, Polε, Polδ, Rad17), Cell Signaling Technology, Inc. (Danvers, Mass.) (pS345-Chk1, pT68-Chk2), Stressgen Bioreagents Corp. (San Diego, Calif.) (Chk1), and Bethyl Laboratories, Inc. (Montgomery, Tex.) (pS33-RPA 32).
U20S cells were untreated (“-”) or treated with 1 mM HU, 5 μM Gem, or 5 μM Ara-C for 2 h. Cell extracts were prepared and immunoblotted with a phospho-Chk1 S345 antibody to show phosphorylated Chk1 (Chk1 S345) and Chk1 (loading control). […] Liu et al. (2000) Genes Dev. 14:1448; Zhao & Piwnica-Worms (2001) Mol. Cell. Biol. 21:4129; Capasso et al. (2002) J. Cell Sci. 115:4555.
At 48 h after siRNA transfections, extracts were prepared and immunoblotted with the indicated antibodies. HU-treated cells were treated with 1 mM HU for 7 h before harvest.
Background: In western blotting, separated proteins are transferred to a membrane and probed.

For assay [3], the system named is RPA32 S33 phosphorylation in U20S cells. Put plainly: Western blot of RPA32 S33 phosphorylation in cell extracts. Conditions: 1 mM HU 15 h, cells transfected with luciferase (control) siRNA, FIG. 10. The format is cell-based, Human. How it is done:
as §1, §2, §3
Cells were tested for Chk1 and RPA32 phosphorylation as a function of depletion of DNA polymerases alone and in combination with depletion of Chk1. […]

For assay [4], the system named is Chk1 S345 in Polα complexes, U20S cells. Put plainly: Time course of Chk1 S345 accumulation in Polα immunoprecipitates. The format is cell-based, Human. Conditions: HU for 0.5, 1, 2 and 15 h; first time point tested; FIG. 9. How it is done:
Immunoprecipitation is performed as follows. Cell pellets are lysed in LT250 buffer (50 mM Tris-HCl pH 7.4, 250 mM NaCl, 5 mM EDTA, 0.1% NP-40, 10% glycerol, 1 mM DTT, 1:100 dilution of phosphatase inhibitor set I and II, and protease inhibitor cocktail set 111 (Calbiochem, San Diego, Calif.). Protein concentrations are determined using the Bio-Rad Protein Assay (Bio-Rad, Hercules, Calif.). For immunoprecipitation, protein lysates (2 mg) are incubated with anti-Polα (SJK 132-20) antibody cross-linked to ImmunoPure Protein G beads for 4 hours at 4° C. Pab419 monoclonal Ab against SV40 T antigen is typically used as a negative control.
(§4) A time course of HU induction of Chk1 phosphorylation was performed. U20S cells were treated with HU for 0.5, 1, 2 and 15 h, and protein extracts were prepared for immunoprecipitation. Polα was immunoprecipitated with Polα antibodies (SJK132-20) cross-linked to protein G. Western blots were performed using anti-Polα, anti-Chk1, and anti-Chk1 S345 antibodies (FIG. 9). Chk1 phosphorylation was complete at even the earliest timepoint, and both Chk1 and Chk1 S345P co-immunoprecipitated with Polα.

Assay [5] has as its target T1, human DNA polymerase alpha (human, UniProt P09884 1-1462).
T1 construct: Endogenous protein in lysates of human U20S osteosarcoma cells; Other subunits of the polymerase alpha complex may have been present in the immune complexes; also called Polα; PolA gene product
T1 sequence: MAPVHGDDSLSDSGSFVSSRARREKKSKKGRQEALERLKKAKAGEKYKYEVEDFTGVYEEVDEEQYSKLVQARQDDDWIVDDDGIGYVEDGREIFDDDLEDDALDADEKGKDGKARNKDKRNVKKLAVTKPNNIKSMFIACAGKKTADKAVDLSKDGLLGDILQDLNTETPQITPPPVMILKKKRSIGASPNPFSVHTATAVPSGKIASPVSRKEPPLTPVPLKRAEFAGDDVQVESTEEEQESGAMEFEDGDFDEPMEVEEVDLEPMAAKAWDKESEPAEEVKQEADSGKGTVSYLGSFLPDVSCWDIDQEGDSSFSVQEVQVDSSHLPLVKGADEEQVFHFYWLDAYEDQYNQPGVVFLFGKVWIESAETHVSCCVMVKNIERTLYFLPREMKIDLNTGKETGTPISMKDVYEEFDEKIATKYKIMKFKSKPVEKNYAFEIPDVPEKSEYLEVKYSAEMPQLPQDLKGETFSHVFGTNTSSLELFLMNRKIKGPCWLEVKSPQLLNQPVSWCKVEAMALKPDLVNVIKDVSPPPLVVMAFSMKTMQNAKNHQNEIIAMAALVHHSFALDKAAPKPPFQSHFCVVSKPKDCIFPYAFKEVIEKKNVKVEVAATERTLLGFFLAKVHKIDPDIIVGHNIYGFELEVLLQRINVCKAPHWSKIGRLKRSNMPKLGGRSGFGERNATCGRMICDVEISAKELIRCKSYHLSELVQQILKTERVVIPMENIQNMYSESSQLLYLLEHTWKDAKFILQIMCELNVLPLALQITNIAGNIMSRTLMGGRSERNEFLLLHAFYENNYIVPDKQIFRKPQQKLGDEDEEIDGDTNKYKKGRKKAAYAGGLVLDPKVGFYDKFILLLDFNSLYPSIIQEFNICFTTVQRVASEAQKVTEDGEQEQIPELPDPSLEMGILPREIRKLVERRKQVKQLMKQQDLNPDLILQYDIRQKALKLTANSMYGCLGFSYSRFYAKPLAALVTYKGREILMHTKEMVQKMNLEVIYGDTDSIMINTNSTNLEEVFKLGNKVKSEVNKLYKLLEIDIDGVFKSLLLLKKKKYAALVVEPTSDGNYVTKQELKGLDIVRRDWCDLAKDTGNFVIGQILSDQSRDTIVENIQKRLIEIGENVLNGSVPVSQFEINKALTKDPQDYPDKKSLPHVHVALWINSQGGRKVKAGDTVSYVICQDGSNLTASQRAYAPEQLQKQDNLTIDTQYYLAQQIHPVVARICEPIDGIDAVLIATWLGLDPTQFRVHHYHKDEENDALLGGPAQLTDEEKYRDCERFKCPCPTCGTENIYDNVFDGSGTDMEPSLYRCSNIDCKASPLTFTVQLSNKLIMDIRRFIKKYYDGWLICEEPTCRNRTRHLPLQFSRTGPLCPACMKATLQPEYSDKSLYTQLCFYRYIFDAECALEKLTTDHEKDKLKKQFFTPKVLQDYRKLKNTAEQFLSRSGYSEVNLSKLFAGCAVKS
The assay can be described thus: immunoprecipitation with SJK132-20, HU time course, western blot. How it is done:
as §4

On to `NC(=O)NO` [HU, hydroxyurea], for which the “H2A.X phosphorylation compared to control samples” value in assay [1] (FIG. 4A, average of three experiments) was “modestly increase”. The “cells exhibiting DNA damage compared with control cultures” value in assay [1] (FIGS. 2B and 2C, siRNA 48 h, HU 1 mM with control siRNA) is reported as “approximately 10 fold”. In addition, the “Chk1 S345 phosphorylation in whole cell extracts” value in assay [2] (1 mM HU 15 h, cells transfected with luciferase (control) siRNA, FIG. 10) is “strong Chk1 S345 phosphorylation”. For the same molecule, in assay [2], the “Chk1 S345 phosphorylation after antimetabolite treatment” value is recorded as “induced substantial phosphorylation of Chk1”. Besides, in assay [3], the “RPA32 phosphorylation in whole cell extracts” value is recorded as “low level RPA32 phosphorylation”. Besides, the “time at which Chk1 S345 response in Polα complexes was complete” value in assay [4] is at most 0.5 h.
In the case of `COc1ccc(CNC(=O)c2cccc(-c3cnc(N)c(C(=O)N[C@H]4CCCNC4)n3)c2)cc1` [3-amino-6-{3-[({[4-(methyloxy)phenyl]methyl}amino)carbonyl]phenyl}-N-[(3S)-piperidin-3-yl]pyrazine-2-carboxamide], the “percentage of cells exhibiting substantial double-stranded DNA breaks (γ-H2AX)” value in assay [1] (Chk1 inhibitor 2.5 μM, 2 hours, combined with siRNA ablation of PolA, controls less than 1%, FIG. 4B) is given as “over 50%”.
In the case of `Nc1ccn([C@@H]2O[C@H](CO)[C@@H](O)[C@@H]2O)c(=O)n1` [Ara-C, cytarabine], the “Chk1 S345 phosphorylation after antimetabolite treatment” value in assay [2] is on record as “induced substantial phosphorylation of Chk1”.
As to `Nc1ccn([C@@H]2O[C@H](CO)[C@@H](O)C2(F)F)c(=O)n1` [Gem, gemcitabine], the “Chk1 S345 phosphorylation after antimetabolite treatment” value in assay [2] is “induced substantial phosphorylation of Chk1”.

B1: Chk1 S345P (Chk1 phosphorylated at S345) (enzyme)
chain: MAVPFVEDWDLVQTLGEGAYGEVQLAVNRVTEEAVAVKIVDMKRAVDCPENIKKEICINKMLNHENVVKFYGHRREGNIQYLFLEYCSGGELFDRIEPDIGMPEPDAQRFFHQLMAGVVYLHGIGITHRDIKPENLLLDERDNLKISDFGLATVFRYNNRERLLNKMCGTLPYVAPELLKRREFHAEPVDVWSCGIVLTAMLAGELPWDQPSDSCQEYSDWKEKKTYLNPWKKIDSAPLALLHKILVENPSARITIPDIKKDRWYNKPLKKGAKRPRVTSGGVSESPSGFSKHIQSNLDFSPVNSASSEENVKYSSSQPEPRTGLSLWDTSPSYIDKLVQGISFSQPTCPDHMLLNSQLLGTPGSSQNPWQRLVKRMTRFFTKLDADKSYQCLKETCEKLGYQWKKSCMNQVTISTTDRRNNKLIFKVNLLEMDDKILVDFRLSKGDGLEFKRHFLKIKGKLIDIVSSQKVWLPAT
modifications: phosphoserine at 345 (Chk1 S345P)
notes: also called phospho-S345 Chk1; Chk S345P
Consider B1, for which, in assay [5], the binding result is on record as “binds”.
